Values of other authors in paper PMC4703501 (Leukemia, 2015).

System: mantle cell lymphoma
Settings: Phase I trial, patients with refractory disease; cited from earlier work

CC[C@H](Nc1ncnc2[nH]cnc12)c1nc2cccc(F)c2c(=O)n1-c1ccccc1 [idelalisib]
efficacy as a single agent: modestly effective
